SMILES strings stand for the structures. Structures can show the parent of a compound that is named as a salt. Where two headings read alike, the source gives them in different places. Where only a bound is given, the exact number is not on record here.

Holding throughout (type): cell-based
Data set [1] deals with HIV. Put plainly: Antiviral activity using T cells. The following applies: Human immunodeficiency virus 1, T-cell. How it is done: (§1) HIV-1 infection assays with cell lines.
(§2) Laboratory strains of HIV-1, HIV-2, simian immunodeficiency virus, strains with know resistance to indicated drugs, or a low-passage (clinically derived) isolates are used to infect established cell lines by using a specific multiplicity of infection (MOI) of the virus for 1 hour at 37° C. prior to washing the cells and resuspension in medium containing increasing concentrations of drug (or test compound). At 4 to 6 days post-infection, drug-treated and control wells are analyzed for an HIV-1 induced cytopathic effect and/or for the presence of viral reverse transcriptase (RT) or viral p24 antigen in the culture medium (Buckheit and Swanstrom 1991; Ojwang et al. 1994, 1995a, Rando et al. 1995).

Data set [2] in a line: Cytotoxicity using T cells.
A further data set deals with HIV-1. The experiment in a line: Antiviral activity (HIV-1 infection assays with cell lines). The following applies: Human immunodeficiency virus 1. As to the method: as §1, §2
Data set [3] is described as follows: Cytotoxicity (table Antiviral Activity & Cytotoxicity). As to conditions: established cell lines.
Data set [4] deals with HIV. Put plainly: HIV infection assay in cell lines (MT-2, MT-4, Jurkat). As to the method: as §1, §2
The nature of data set [5]: Cytotoxicity in MT-2 cells. As to conditions: human.
A further data set in a line: Cytotoxicity in PBMCs. The following applies: human. How it is done: (§3) Peripheral blood mononuclear cells (PBMCs), Core blood mononuclear cells (CBMCs) and peripheral blood lymphocytes (PBLs) are isolated from the blood of HIV-1 negative and hepatitis B virus-negative (healthy) donors by using the Ficoll-Hypaque density gradient centrifugation technique and are then cultured as described by Gartner and Popovic (1990).

The test system of data set [6] is HIV. The experiment in a line: HIV infection of PBMCs. The following applies: Human immunodeficiency virus 1, PBMC, read-out: HIV IC50 (uM) PBMCs. How it is done: HIV-1 infection of PBMCs, CBMCs, and PBL.
as §3
PBMCs or CBMCs (2×10^5 cells/well) were infected with various isolates of HIV-1 at an MOI of 0.01. After 2 hours at 37C the cells are washed and treated with various concentrations of drug or test compound (Buckheit and Swanstrom 1991; Ojwang et al. 1995a). Seven days post-infection, HIV-1 replication was analyzed by the measuring the levels of RT or p24 in the culture medium.

The mark [7] stands for this setting: antiviral activity, read-out: IC50.
Setting [8] is: Human immunodeficiency virus 1, MT2, read-out: HIV IC50 (uM) MT-2.
Setting [9] is: peripheral blood mononuclear cells (PBMCs), read-out: CC50 (uM) PBMCs.

As usually defined, the IC50 is the concentration that gives 50% inhibition. In general, CC50 refers to the concentration giving 50% cytotoxicity. For the molecule `O=c1n(C2CO[C@H](CO)O2)ccc2nc(-c3ccc(F)cc3)cn12` (stereo in doubt) [Compound 43, 2-(4-FLUOROPHENYL)-6-[(2S,4S)-2- HYDROXYMETHYL-1,3-DIOXOLAN-4-YL]- 5,6-DIHYDRO[1,3]DIAZOLO[1,2- C][1,3]DIAZIN-5-ONE], in the data set with HIV [1], the IC50 turned out to be 0.31 µM. In data set [2], this molecule registered a CC50 greater than 100 µM.

For `O=c1n([C@H]2CO[C@@H](CO)O2)cc(F)c2nc(-c3ccc(F)cc3)cn12` (stereo in doubt) [Compound 48], the IC50 with HIV-1 (setting [7]) and in the data set with HIV [1] was 0.026 µM each time. Also, the CC50 in data set [3] and in data set [2] was greater than 100 µM in each case.

On to `O=c1n([C@@H]2CC[C@H](CO)O2)ccc2nc(-c3ccc([N+](=O)[O-])cc3)cn12` [Compound 31, 6-[(2S,5R)-5-HYDROXYMETHYL OXOLAN-2-YL]-2-(4-NITROPHENYL)-5,6- DIHYDRO[1,3]-DIAZOLO[1,2-C][1,3]DIAZIN-5-ONE], for which the IC50 in the data set on HIV [1] came out at 9.7 µM. Moreover, the CC50 in data set [2] stood at 45 µM.

With `O=c1n([C@H]2CC[C@@H](CO)O2)ccc2nc(-c3ccc([N+](=O)[O-])cc3)cn12` [Compound 32, 2-(4- NITROPHENYL)-6-[(2R,5S)-5- HYDROXYMETHYLOXOLAN-2-YL]-5,6- DIHYDRO[1,3]-DIAZOLO[1,2-C][1,3]DIAZIN-5-ONE], inhibition with HIV [1] was half-maximal at 7 µM (IC50). The molecule also displayed a CC50 in data set [2] greater than 100 µM.

In the data set on HIV [1], `O=c1n([C@@H]2CC[C@H](CO)O2)cc(F)c2nc(-c3ccc(F)cc3)cn12` [Compound 33, 8-FLUORO-2-(4-FLUOROPHENYL)-6- [(5R,2S)-5-HYDROXYMETHYL OXOLAN- 2-YL]-5,6-DIHYDRO[1,3]DIAZOLO[1,2- C][1,3]DIAZIN-5-ONE] came in with an IC50 of 4 µM. Moreover, the midpoint of cytotoxicity in data set [2], the CC50, lay at 90 µM.

In turn, `O=c1n([C@H]2CC[C@@H](CO)O2)cc(F)c2nc(-c3ccc([N+](=O)[O-])cc3)cn12` [Compound 36, 8-FLUORO-2-(4-NITROPHENYL)-6- [(2R,5S)-5-HYDROXYMETHYL OXOLAN- 2-YL]-5,6-DIHYDRO[1,3]-DIAZOLO[1,2- C][1,3]DIAZIN-5-ONE] had a half-maximal inhibitory concentration (IC50) in the data set on HIV [1] of 1 µM. In addition, the CC50 in data set [2] was greater than 100 µM.

Take `O=c1n([C@H]2CO[C@@H](CO)O2)ccc2nc(-c3ccc(F)cc3)cn12` [Compound 44, 2-(4-FLUOROPHENYL)-6-[(2R,4R)-2- HYDROXYMETHYL-1,3-DIOXOLAN-4-YL]- 5,6-DIHYDRO[1,3]DIAZOLO[1,2- C][1,3]DIAZIN-5-ONE]: the IC50 in the data set with HIV-1 (setting [7]) amounted to 0.003 µM; in the data set on HIV [1] it was 0.0032 µM. Moreover, the CC50 in data set [3] and in data set [2] was greater than 100 µM throughout.

Regarding `O=c1n([C@@H]2CO[C@H](CO)O2)ccc2nc(-c3ccc([N+](=O)[O-])cc3)cn12` [Compound 45, L2-(4-NITROPHENYL)-6-[(2S,4S)-2- HYDROXYMETHYL-1,3-DIOXOLAN-4-YL]- 5,6-DIHYDRO[1,3]DIAZOLO[1,2- C][1,3]DIAZIN-5-ONE], the IC50 in the data set on HIV [1] was 0.25 µM; with HIV [4] (setting [8]), 3 µM. The results for the 50% cytotoxic concentration (CC50) in data set [2] and in data set [5] were 10 µM and 2 µM, respectively.

Take `O=c1n([C@H]2CO[C@@H](CO)O2)ccc2nc(-c3ccc([N+](=O)[O-])cc3)cn12` [Compound 46, 2-(4-NITROPHENYL)-6-[(2R,4R)-2- HYDROXYMETHYL-1,3-DIOXOLAN-4-YL]- 5,6-DIHYDRO[1,3]DIAZOLO[1,2- C][1,3]DIAZIN-5-ONE]: the IC50 with HIV-1 (setting [7]) and in the data set on HIV [1] was 0.1 µM in each case. Besides, the CC50 in data set [3] and in data set [2] was greater than 100 µM in each case.

In the case of `O=c1n([C@@H]2CO[C@H](CO)O2)cc(F)c2nc(-c3ccc([N+](=O)[O-])cc3)cn12` [Compound 49], the IC50 in the data set with HIV-1 worked out at 0.005 µM; in the data set with HIV [4] (Human immunodeficiency virus 1, Jurkat, read-out: HIV IC50 (uM) Jurkat) it was 0.24 µM; in the data set with HIV [4] (setting [8]), 0.13 µM; with HIV [4] (Human immunodeficiency virus 1, MT4, read-out: HIV IC50 (uM) (MT-4)) it was 0.015 µM. Also, the CC50 in data set [5] is 6.5 µM; in “Cytotoxicity in PBMCs” (setting [9]), less than 10 µM.

For `O=c1n([C@H]2CO[C@@H](CO)O2)cc(F)c2nc(-c3ccc([N+](=O)[O-])cc3)cn12` [Compound 50], the results for the IC50 with HIV-1 (setting [7]), with HIV [1] and in the data set with HIV [4] (setting [8]) were 0.44 µM, 0.44 µM and 2.8 µM, respectively. Also, the figures for the CC50 in data set [3], in data set [2] and in data set [5] were greater than 100 µM, greater than 100 µM and greater than 10 µM, respectively.

Regarding `O=c1n([C@H]2CO[C@H](CO)O2)ccc2nc(-c3ccc([N+](=O)[O-])cc3)cn12` [Compound 53], the IC50 with HIV [1] is 0.4 µM. In data set [2], this molecule yielded a CC50 greater than 10 µM.

`O=c1n([C@H]2CO[C@H](CO)O2)cc(F)c2nc(-c3ccc(F)cc3)cn12` [Compound 55] registered an IC50 with HIV [1] of 48 µM. Besides, in data set [2], the CC50 was greater than 100 µM.

For the molecule `O=c1n([C@@H]2CO[C@@H](CO)O2)cc(F)c2nc(-c3ccc([N+](=O)[O-])cc3)cn12` [Compound 58], the IC50 in the data set on HIV-1 and with HIV [1] was 60 µM in each case. The CC50 in data set [3] and in data set [2] was greater than 100 µM in each case.

With `CC(C)[C@H](N)C(=O)OCC1OC[C@H](n2ccc3nc(-c4ccc(F)cc4)cn3c2=O)O1` (some centres unmarked) [Compound 60, 2-AMINO-3-METHYL-BUTYRIC ACID 4-[2- (4-FLUORO-PHENYL)-5-OXO-IMIDAZO [1,2-C]PYRIMIDIN-6-YL]-[1,3]DIOXOLAN-2- YLMETHYL ESTER; HYDROCHLORIDE SALT], the half-maximal inhibitory concentration (IC50) in the data set on HIV [6] stood at 0.6 µM. In addition, the CC50 in “Cytotoxicity in PBMCs” is greater than 10 µM.

`O=c1n([C@H]2CO[C@@H](CO)O2)ccc2nc(-c3ccccc3)cn12` [Compound 62, 6-(2-HYDROXYMETHYL-[1,3]DIOXOLAN- 4-YL)-2-PHENYL-6H-IMIDAZO[1,2-C]PYRIMIDIN-5-ONE]: in the data set with HIV [6] (PBMCs), the IC50 turned out to be 8 µM. Moreover, in “Cytotoxicity in PBMCs” (setting [9]), the CC50 was greater than 10 µM.

The record behind these values is US20020061896A1, “Imidazopyrimidine nucleoside analogues with anti-HIV activity” (priority 1999, published 2002).
